Tests used:
dopamine D2 receptor = dopamine D2 receptor (Homo sapiens, UniProt P14416); test: Binding affinity to cloned human dopamine receptors (radioligand displacement), D2; conditions: for Affinity to Dopamine Receptors (% Inhibition) D2: 1 µM test compound
Description: (§1) Experimental Example: Test for the Binding Affinity to Dopamine Receptor
(§2) Binding affinities of the compounds for dopamine receptors were determined indirectly by their ability to displace radiolabeled ligand from cloned human dopamine receptors. Compounds were incubated in receptor suspension to compete with the radiolabeled ligand. The receptor-bound radiolabeled ligand was separated by filtering through Wallac glass fiber filtermat (GF/C) using Inotech cell harvester of 96-well format. The radioactivity bound to filter was counted by Micro-P counter (Wallac).
(§3) The aliquots of cloned human dopamine receptors stored at −70° C. were suspended in assay buffer and the content of receptor in each aliquot was determined by Bio-Rad DC protein assay kit to give an optimal protein (receptor) concentration obtained by preliminary receptor binding assay. Receptor suspension adjusted to optimal concentration was aliquoted in proper volume for assay and stored at −70° C. Binding assays of every compound were performed in duplicate and each different buffer solution was used for optimal assay with each subtype of dopamine receptors. Receptor binding assays were carried out in 96-well plates. Receptor suspension of 100 was incubated at 27° C. for 30-60 min in a final volume of 0.25 ml reaction mixture containing 50 of hot-ligand and 10 of test compound.
(§4) After incubation, the reaction mixture was washed with ice-cold 50 mM Tris-acetate buffer by rapid filtration using a Inotech cell harvester (Inotech, Switzerland) through Whatman GF/C glass fiber filter presoaked in the assay buffer. The filter was covered with MeltiLex, sealed in a sample bag followed by drying in the microwave, and counted by MicroBeta Plus (Wallac, Finland) at a counting efficiency of 30-40%.

dopamine D3 receptor = dopamine D3 receptor (Homo sapiens, UniProt P35462); test: Binding affinity to cloned human dopamine receptors (radioligand displacement), D3; conditions: for Affinity to Dopamine Receptors (% Inhibition) D3: 1 µM test compound
dopamine D3 receptor, sequence (P35462 whole entry): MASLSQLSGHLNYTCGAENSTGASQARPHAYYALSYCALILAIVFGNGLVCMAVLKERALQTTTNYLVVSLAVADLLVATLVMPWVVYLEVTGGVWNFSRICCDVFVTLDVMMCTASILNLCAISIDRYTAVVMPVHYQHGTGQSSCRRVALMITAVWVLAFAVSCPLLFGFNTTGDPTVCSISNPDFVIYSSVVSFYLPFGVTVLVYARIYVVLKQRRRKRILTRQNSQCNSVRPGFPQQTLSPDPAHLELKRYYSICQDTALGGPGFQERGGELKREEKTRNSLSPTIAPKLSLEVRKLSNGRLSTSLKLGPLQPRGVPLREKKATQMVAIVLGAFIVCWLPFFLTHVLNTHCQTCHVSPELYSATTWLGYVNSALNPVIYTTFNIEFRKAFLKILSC
Description: as §1, §2, §3, §4

dopamine D4 receptor = biological target: T1, dopamine D4 receptor (Homo sapiens, UniProt P21917); test: Binding affinity to cloned human dopamine receptors (radioligand displacement), D4; conditions: for Affinity to Dopamine Receptors (% Inhibition) D4: 1 µM test compound
T1 sequence (P21917 1-419): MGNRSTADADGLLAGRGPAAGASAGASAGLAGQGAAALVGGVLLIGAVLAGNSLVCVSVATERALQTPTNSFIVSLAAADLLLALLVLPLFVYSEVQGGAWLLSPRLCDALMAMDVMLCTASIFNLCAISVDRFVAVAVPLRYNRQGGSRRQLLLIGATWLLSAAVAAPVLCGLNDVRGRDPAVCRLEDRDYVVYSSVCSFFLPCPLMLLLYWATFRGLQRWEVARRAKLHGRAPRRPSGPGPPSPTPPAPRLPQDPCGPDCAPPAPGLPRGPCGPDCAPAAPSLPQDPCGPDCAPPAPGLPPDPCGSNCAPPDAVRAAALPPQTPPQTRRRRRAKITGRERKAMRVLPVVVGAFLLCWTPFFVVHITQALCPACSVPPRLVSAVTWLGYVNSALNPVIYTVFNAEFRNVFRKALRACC
Description: as §1, §2, §3, §4

dopamine D1 receptor = dopamine D1 receptor (Homo sapiens, UniProt P21728); test: Binding affinity to cloned human dopamine receptors (radioligand displacement), D1; conditions: for Affinity to Dopamine Receptors (% Inhibition) D1: 1 µM test compound
dopamine D1 receptor, sequence (P21728 whole entry): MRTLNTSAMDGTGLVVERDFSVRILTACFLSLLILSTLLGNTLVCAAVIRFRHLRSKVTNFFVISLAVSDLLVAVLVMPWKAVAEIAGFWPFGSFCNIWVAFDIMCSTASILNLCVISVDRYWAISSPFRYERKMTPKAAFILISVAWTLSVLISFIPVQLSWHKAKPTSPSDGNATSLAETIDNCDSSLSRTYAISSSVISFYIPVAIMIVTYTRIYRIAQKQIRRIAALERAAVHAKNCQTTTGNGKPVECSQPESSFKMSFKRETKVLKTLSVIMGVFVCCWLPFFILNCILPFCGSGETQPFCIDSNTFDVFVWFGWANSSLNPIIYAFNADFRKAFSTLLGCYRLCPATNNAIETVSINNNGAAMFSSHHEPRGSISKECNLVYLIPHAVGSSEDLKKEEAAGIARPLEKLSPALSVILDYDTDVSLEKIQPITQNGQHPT
Description: as §1, §2, §3, §4

dopamine D2 receptor, sequence (P14416 whole entry): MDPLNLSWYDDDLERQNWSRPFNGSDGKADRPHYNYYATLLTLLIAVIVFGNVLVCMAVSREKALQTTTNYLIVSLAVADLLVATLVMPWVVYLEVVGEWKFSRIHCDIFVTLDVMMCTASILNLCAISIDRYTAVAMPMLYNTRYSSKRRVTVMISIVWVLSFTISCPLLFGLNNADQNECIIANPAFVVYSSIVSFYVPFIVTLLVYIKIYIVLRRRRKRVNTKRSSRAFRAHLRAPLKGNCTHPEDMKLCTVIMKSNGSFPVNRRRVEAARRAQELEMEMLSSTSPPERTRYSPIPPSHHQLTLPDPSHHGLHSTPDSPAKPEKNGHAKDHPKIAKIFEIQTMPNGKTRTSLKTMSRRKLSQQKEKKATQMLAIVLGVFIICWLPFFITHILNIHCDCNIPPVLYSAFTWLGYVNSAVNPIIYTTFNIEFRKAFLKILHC

Compound: CCOc1ccccc1N1CCN(CCCc2cc(-c3ccc(F)cc3)no2)CC1 [Compound No. 20]
- Affinity to Dopamine Receptors (% Inhibition) D2 (dopamine D2 receptor): 47.9%
- Affinity to Dopamine Receptors (% Inhibition) D3 (dopamine D3 receptor): 89.4%
- Affinity to Dopamine Receptors (% Inhibition) D4 (dopamine D4 receptor): 86.2%

Compound: CCOc1ccccc1N1CCN(CCCCc2cc(-c3cccs3)no2)CC1 [Compound No. 53]
- IC50 (dopamine D2 receptor): 880 nM
- Affinity to Dopamine Receptors (% Inhibition) D2 (dopamine D2 receptor): 54.1%
- IC50 (dopamine D4 receptor): 19 nM
- Affinity to Dopamine Receptors (% Inhibition) D4 (dopamine D4 receptor): 93.4%

Compound: COc1ccc(-c2cc(CCCCN3CCN(c4ccccc4OC)CC3)on2)cc1OC [Compound No. 39]
- IC50 (dopamine D2 receptor): 1900 nM
- Affinity to Dopamine Receptors (% Inhibition) D2 (dopamine D2 receptor): 23%
- IC50 (dopamine D3 receptor): 12 nM
- Affinity to Dopamine Receptors (% Inhibition) D3 (dopamine D3 receptor): 105.1%
- IC50 (dopamine D1 receptor): 2880 nM
- Affinity to Dopamine Receptors (% Inhibition) D1 (dopamine D1 receptor): 23.9%
- IC50 (dopamine D4 receptor): 395 nM
- Affinity to Dopamine Receptors (% Inhibition) D4 (dopamine D4 receptor): 80.1%

Compound: C(=C\c1cc(CCCCN2CCN(C(c3ccccc3)c3ccccc3)CC2)on1)/c1ccccc1 [Compound No. 29]
- Affinity to Dopamine Receptors (% Inhibition) D2 (dopamine D2 receptor): 0.0%
- Affinity to Dopamine Receptors (% Inhibition) D3 (dopamine D3 receptor): 102.4%
- Affinity to Dopamine Receptors (% Inhibition) D1 (dopamine D1 receptor): 32.6%
- Affinity to Dopamine Receptors (% Inhibition) D4 (dopamine D4 receptor): 31.6%

Compound: C(=C\c1cc(CCCCN2CCN(c3ccccc3)CC2)on1)/c1ccccc1 [Compound No. 36]
- Affinity to Dopamine Receptors (% Inhibition) D2 (dopamine D2 receptor): 22.2%
- Affinity to Dopamine Receptors (% Inhibition) D3 (dopamine D3 receptor): 107.9%
- Affinity to Dopamine Receptors (% Inhibition) D1 (dopamine D1 receptor): 75.2%
- Affinity to Dopamine Receptors (% Inhibition) D4 (dopamine D4 receptor): 69%

Compound: Fc1ccccc1N1CCN(CCCCc2cc(/C=C/c3ccccc3)no2)CC1 [Compound No. 46]
- IC50 (dopamine D2 receptor): 2660 nM
- Affinity to Dopamine Receptors (% Inhibition) D2 (dopamine D2 receptor): 15.6%
- Affinity to Dopamine Receptors (% Inhibition) D1 (dopamine D1 receptor): 75.8%
- IC50 (dopamine D4 receptor): 89 nM
- Affinity to Dopamine Receptors (% Inhibition) D4 (dopamine D4 receptor): 45.1%

Compound: COc1ccccc1N1CCN(CCCCc2cc(-c3ccc(F)cc3)no2)CC1 [Compound No. 37]
- Affinity to Dopamine Receptors (% Inhibition) D2 (dopamine D2 receptor): 57.3%
- Affinity to Dopamine Receptors (% Inhibition) D3 (dopamine D3 receptor): 112.5%
- Affinity to Dopamine Receptors (% Inhibition) D1 (dopamine D1 receptor): 52.2%
- Affinity to Dopamine Receptors (% Inhibition) D4 (dopamine D4 receptor): 91.3%

Compound: CCOc1ccccc1N1CCN(CCCCc2cc(-c3ccccc3)no2)CC1 [Compound No. 54]
- IC50 (dopamine D2 receptor): 1550 nM
- Affinity to Dopamine Receptors (% Inhibition) D2 (dopamine D2 receptor): 29.9%
- IC50 (dopamine D3 receptor): 21 nM
- Affinity to Dopamine Receptors (% Inhibition) D3 (dopamine D3 receptor): 101.8%
- IC50 (dopamine D4 receptor): 52 nM
- Affinity to Dopamine Receptors (% Inhibition) D4 (dopamine D4 receptor): 77.6%

Compound: c1ccc(N2CCN(CCCCc3cc(-c4cccs4)no3)CC2)cc1 [Compound No. 33]
- IC50 (dopamine D2 receptor): 18800 nM
- Affinity to Dopamine Receptors (% Inhibition) D2 (dopamine D2 receptor): 6.7%
- IC50 (dopamine D3 receptor): 35 nM
- Affinity to Dopamine Receptors (% Inhibition) D3 (dopamine D3 receptor): 104.4%
- IC50 (dopamine D1 receptor): 310 nM
- Affinity to Dopamine Receptors (% Inhibition) D1 (dopamine D1 receptor): 52.9%
- IC50 (dopamine D4 receptor): 180 nM
- Affinity to Dopamine Receptors (% Inhibition) D4 (dopamine D4 receptor): 62.4%

Compound: COc1ccc(-c2cc(CCCN3CCN(c4ccccc4)CC3)on2)c(OC)c1 [Compound No. 32]
- IC50 (dopamine D2 receptor): 9980 nM
- Affinity to Dopamine Receptors (% Inhibition) D2 (dopamine D2 receptor): 10.6%
- IC50 (dopamine D3 receptor): 38 nM
- Affinity to Dopamine Receptors (% Inhibition) D3 (dopamine D3 receptor): 100.1%
- IC50 (dopamine D1 receptor): 110 nM
- Affinity to Dopamine Receptors (% Inhibition) D1 (dopamine D1 receptor): 70%
- IC50 (dopamine D4 receptor): 117 nM
- Affinity to Dopamine Receptors (% Inhibition) D4 (dopamine D4 receptor): 74.9%

— US6723724B2, “Isoxazolylalkylpiperazine derivatives having selective biological activity at dopamine D3 or D4 receptor, and preparation thereof” (priority 2000, dated 2004)
